According to US12295925B2, “Treatment of neurofibromatosis type 1 (NF1) associated plexiform neurofibromas (PN) in pediatric patients with mirdametinib” (SpringWorks Therapeutics, Inc., priority 2022, dated 2025):

System: patients >2 and <25 years with brain cancer
Test: Phase I/II trial of single agent mirdametinib in children, adolescents and young adults with brain cancer
Assay type: in vivo, human
Method: Example 1: Phase I/II Evaluation of Single Agent Mirdametinib, a Brain-Penetrant MEK1/2 Inhibitor, for the Treatment of Children, Adolescents, and Young Adults with Brain Cancer A multi-arm phase I/II trial of mirdametinib is to be conducted in patients>2 and <25 years with brain cancer. Phase I requires participants have no prior exposure to MEK inhibitors and recurrent/progressive disease with biopsy-proven evidence of MAPK pathway activation. Three escalating dose levels (2 mg/m^2/dose BID, 2.5 mg/m^2/dose BID and 3 mg/m^2/dose BID) are planned using a rolling 6 design. The median age enrolled in the study is 10 years old (3-21).

SMILES: O=C(NOC[C@H](O)CO)c1ccc(F)c(F)c1Nc1ccc(I)cc1F (single isomer, unassigned) [mirdametinib]
- dose-limiting toxicities (all three dose levels (2, 2.5 and 3 mg/m^2/dose BID), rolling 6 design, patients with brain cancer, median age 10 years): No dose-limiting toxicities
- clinical activity (overall assessment) (dosed continuously in patients with brain cancer): clinically promising
